According to patent US6949383B2 (priority 1998, dated 2005):

Tests used:
dnaQ+ strain (wild type) = format: cell-based, Escherichia coli
Super-Amp-resistant dnaQ = format: cell-based, Escherichia coli
dnaQ49 strain [1] = assay: Drug resistance reached by repeated mutagenesis and selection (Example 2); format: cell-based, Escherichia coli
[2] = test system: Super-Stre.-resisting dnaQ; assay: Minimum growth inhibiting concentration (MIC) of antibiotic substances; format: cell-based, Escherichia coli
Wild-Type = format: cell-based, Escherichia coli
dnaQ = format: cell-based, Escherichia coli
wild type (dnaQ+ strain) = assay: Ampicillin concentration-survival (colony forming) after mutagenesis runs, with or without MNNG; format: cell-based, Escherichia coli; conditions: for Maximum concentration for ampicillin resistance: wild type and MNNG wild type
dnaQ49 strain [3] = assay: Ampicillin concentration-survival (colony forming) after mutagenesis runs; format: cell-based, Escherichia coli; conditions: for AC: Ampicillin Concentration (maximum concentration for ampicillin resistance): dnaQ49 strain
[4] = test system: ampicillin-resistant Escherichia coli; conditions: resistance due to plasmid; cited from earlier work
[5] = test system: Super-Nali.-resisting dnaQ; assay: Minimum growth inhibiting concentration (MIC) of antibiotic substances; format: cell-based, Escherichia coli
[6] = mutagenesis treatment for 1 time
[7] = mutagenesis treatments for 2 times
[8] = mutagenesis treatments for 3 times
[9] = mutagenesis treatments for 4 times
[10] = mutagenesis treatments for 5 times
[11] = mutagenesis treatments for 6 times
[12] = mutagenesis treatments for 7 times
[13] = mutagenesis treatments for 8 times
[14] = mutagenesis treatments for 9 times
[15] = mutagenesis treatments for 10 times
[16] = mutagenesis treatments for 11 times
[17] = mutagenesis treatments for 12 times
[18] = mutagenesis treatments for 13 times
[19] = mutagenesis treatments for 14 times
[20] = mutagenesis treatments for 15 times
[21] = mutagenesis treatments for 16 times
[22] = mutagenesis treatments for 17 times
[23] = mutagenesis treatments for 18 times
[24] = mutagenesis treatments for 19 times
[25] = mutagenesis treatments for 20 times
[26] = mutagenesis treatments for 21 times
[27] = mutagenesis treatments for 22 times
[28] = mutagenesis treatments for 23 times

## [H]/N=C(/N)N[C@H]1[C@H](O)[C@@H](O)[C@H](O[C@@H]2O[C@@H](C)[C@](O)(C=O)[C@H]2O[C@@H]2O[C@@H](CO)[C@H](O)[C@@H](O)[C@@H]2NC)[C@@H](N/C(N)=N\[H])[C@@H]1O [Streptomycin]
dnaQ+ strain (wild type)
  Growth of dnaQ+ strain (wild type) in the presence of drug: *3) dnaQ+ strain (wild type) did not grow in the presence of 10 μg/ml of streptomycin.
Super-Amp-resistant dnaQ
  Minimum growth inhibiting concentration (MIC): 0.5
dnaQ49 strain [1]; [6]
  Concentration of Streptomycin: 1 µg/mL
dnaQ49 strain [1]; [7]
  Concentration of Streptomycin: 10 µg/mL
dnaQ49 strain [1]; [8]
  Concentration of Streptomycin: 100 µg/mL
dnaQ49 strain [1]; [9]
  Concentration of Streptomycin: 1000 µg/mL
dnaQ49 strain [1]; [10]
  Concentration of Streptomycin: 3000 µg/mL
dnaQ49 strain [1]; [11]
  Concentration of Streptomycin: 4000 µg/mL
dnaQ49 strain [1]; [12]
  Concentration of Streptomycin: 6000 µg/mL
dnaQ49 strain [1]; [13]
  Concentration of Streptomycin: 8000 µg/mL
dnaQ49 strain [1]; [14]
  Concentration of Streptomycin: 9000 µg/mL
dnaQ49 strain [1]; [15]
  Concentration of Streptomycin: 10000 µg/mL
dnaQ49 strain [1]; [16]
  Concentration of Streptomycin: 12000 µg/mL
dnaQ49 strain [1]; [17]
  Concentration of Streptomycin: 14000 µg/mL
dnaQ49 strain [1]; [18]
  Concentration of Streptomycin: 16000 µg/mL
dnaQ49 strain [1]; [19]
  Concentration of Streptomycin: 17000 µg/mL
dnaQ49 strain [1]; [20]
  Concentration of Streptomycin: 18000 µg/mL
dnaQ49 strain [1]; [21]
  Concentration of Streptomycin: 19000 µg/mL
dnaQ49 strain [1]; [22]
  Concentration of Streptomycin: 20000 µg/mL
dnaQ49 strain [1]; [23]
  Concentration of Streptomycin: 21000 µg/mL
dnaQ49 strain [1]; [24]
  Concentration of Streptomycin: 22000 µg/mL
dnaQ49 strain [1]; [25]
  Concentration of Streptomycin: 23000 µg/mL
dnaQ49 strain [1]; [26]
  Concentration of Streptomycin: 24000 µg/mL
dnaQ49 strain [1]; [27]
  Concentration of Streptomycin: 25000 µg/mL
dnaQ49 strain [1]; [28]
  Concentration of Streptomycin: 26000 µg/mL
dnaQ49 strain [1]; mutagenesis treatments for 23 times, listed as streptomycin
  Concentration of Streptomycin: 26,000 μg/ml
[2]
  Minimum growth inhibiting concentration (MIC): 2048
Wild-Type
  Minimum growth inhibiting concentration (MIC): 1
dnaQ
  Minimum growth inhibiting concentration (MIC): 1

## CC1(C)S[C@@H]2[C@H](NC(=O)[C@H](N)c3ccccc3)C(=O)N2[C@H]1C(=O)O [Ampicillin]
Wild type (dnaQ+ strain); MNNG-treated group, low-concentration treatment
  Ampicillin resistance of resistant microorganism obtained: 300 µg/mL
Wild type (dnaQ+ strain); Wild type (MNNG Concn 0), 1st Run
  AC: Ampicillin Concentration (maximum concentration for ampicillin resistance): 3 µg/mL
Wild type (dnaQ+ strain); Wild type (MNNG Concn 0), 2nd Run
  AC: Ampicillin Concentration (maximum concentration for ampicillin resistance): 10 µg/mL
Wild type (dnaQ+ strain); Wild type (MNNG Concn 0), 3rd Run
  AC: Ampicillin Concentration (maximum concentration for ampicillin resistance): 10 µg/mL
Wild type (dnaQ+ strain); Wild type (MNNG Concn 0), 4th Run
  AC: Ampicillin Concentration (maximum concentration for ampicillin resistance): 10 µg/mL
Wild type (dnaQ+ strain); Wild type (MNNG Concn 0), 5th Run
  AC: Ampicillin Concentration (maximum concentration for ampicillin resistance): 60 µg/mL
Wild type (dnaQ+ strain); Wild type (MNNG Concn 1), 1st Run
  AC: Ampicillin Concentration (maximum concentration for ampicillin resistance): 3 µg/mL
Wild type (dnaQ+ strain); Wild type (MNNG Concn 1), 2nd Run
  AC: Ampicillin Concentration (maximum concentration for ampicillin resistance): 10 µg/mL
Wild type (dnaQ+ strain); Wild type (MNNG Concn 1), 3rd Run
  AC: Ampicillin Concentration (maximum concentration for ampicillin resistance): 10 µg/mL
Wild type (dnaQ+ strain); Wild type (MNNG Concn 1), 4th Run
  AC: Ampicillin Concentration (maximum concentration for ampicillin resistance): 10 µg/mL
Wild type (dnaQ+ strain); Wild type (MNNG Concn 1), 5th Run
  AC: Ampicillin Concentration (maximum concentration for ampicillin resistance): 60 µg/mL
Wild type (dnaQ+ strain); Wild type (MNNG Concn 3), 1st Run
  AC: Ampicillin Concentration (maximum concentration for ampicillin resistance): 3 µg/mL
Wild type (dnaQ+ strain); Wild type (MNNG Concn 3), 2nd Run
  AC: Ampicillin Concentration (maximum concentration for ampicillin resistance): 30 µg/mL
Wild type (dnaQ+ strain); Wild type (MNNG Concn 3), 3rd Run
  AC: Ampicillin Concentration (maximum concentration for ampicillin resistance): 100 µg/mL
Wild type (dnaQ+ strain); Wild type (MNNG Concn 3), 4th Run
  AC: Ampicillin Concentration (maximum concentration for ampicillin resistance): 300 µg/mL
Wild type (dnaQ+ strain); Wild type (MNNG Concn 6), 1st Run
  AC: Ampicillin Concentration (maximum concentration for ampicillin resistance): 3 µg/mL
Wild type (dnaQ+ strain); Wild type (MNNG Concn 6), 2nd Run
  AC: Ampicillin Concentration (maximum concentration for ampicillin resistance): 6 µg/mL
Wild type (dnaQ+ strain); Wild type (MNNG Concn 6), 3rd Run
  AC: Ampicillin Concentration (maximum concentration for ampicillin resistance): 10 µg/mL
Wild type (dnaQ+ strain); Wild type (MNNG Concn 6), 4th Run
  AC: Ampicillin Concentration (maximum concentration for ampicillin resistance): 10 µg/mL
Wild type (dnaQ+ strain); Wild type (MNNG Concn 6), 5th Run
  AC: Ampicillin Concentration (maximum concentration for ampicillin resistance): 30 µg/mL
Wild type (dnaQ+ strain); Wild type (MNNG Concn 10), 1st Run
  AC: Ampicillin Concentration (maximum concentration for ampicillin resistance): 6 µg/mL
Wild type (dnaQ+ strain); Wild type (MNNG Concn 30), 1st Run
  AC: Ampicillin Concentration (maximum concentration for ampicillin resistance): 3 µg/mL
Wild type (dnaQ+ strain); after first mutagenesis
  Maximum concentration for ampicillin resistance: 3˜6 μg/ml
Wild type (dnaQ+ strain); after second mutagenesis
  Maximum concentration for ampicillin resistance: 6˜30 μg/ml
dnaQ49 strain [3]; another dnaQ49 strain, five mutagenesis treatments (FIG. 7)
  Ampicillin resistance of strain obtained: about 10,000 g/ml
dnaQ49 strain [3]; dnaQ49 strain before introduction of mutation, compared with wild type, 24° C., two days
  Ampicillin resistance from concentration-survival curve: slightly stronger ampicillin resistance than the wild type
dnaQ49 strain [3]; 1st Run of mutagenesis
  AC: Ampicillin Concentration (maximum concentration for ampicillin resistance): 30 µg/mL
dnaQ49 strain [3]; 2nd Run of mutagenesis
  AC: Ampicillin Concentration (maximum concentration for ampicillin resistance): 300 µg/mL
dnaQ49 strain [3]; 3rd Run of mutagenesis
  AC: Ampicillin Concentration (maximum concentration for ampicillin resistance): 1000 µg/mL
dnaQ49 strain [3]; 4th Run of mutagenesis
  AC: Ampicillin Concentration (maximum concentration for ampicillin resistance): 3000 µg/mL
dnaQ49 strain [3]; 5th Run of mutagenesis
  AC: Ampicillin Concentration (maximum concentration for ampicillin resistance): 6000 µg/mL
dnaQ49 strain [3]; 5th Run of mutagenesis, listed as ampicillin
  AC: Ampicillin Concentration (maximum concentration for ampicillin resistance): about 6,000 μg/ml
[4]
  Resistance concentration of ampicillin-resistant Escherichia coli reported up to now: 1,500 μg/ml
Super-Amp-resistant dnaQ
  Minimum growth inhibiting concentration (MIC): 2048
Wild-Type
  Minimum growth inhibiting concentration (MIC): 1
dnaQ
  Minimum growth inhibiting concentration (MIC): 2

## CO[C@H]1/C=C/O[C@@]2(C)Oc3c(C)c(O)c4c(O)c(c(/C=N/N5CCN(C)CC5)c(O)c4c3C2=O)NC(=O)/C(C)=C\C=C\[C@H](C)[C@H](O)[C@@H](C)[C@@H](O)[C@@H](C)[C@H](OC(C)=O)[C@@H]1C [Rifampicin]
Super-Amp-resistant dnaQ
  Minimum growth inhibiting concentration (MIC): 2
Wild-Type
  Minimum growth inhibiting concentration (MIC): 4
dnaQ
  Minimum growth inhibiting concentration (MIC): 8

## CCn1cc(C(=O)O)c(=O)c2ccc(C)nc21 [Nalidixic acid]
[5]
  Minimum growth inhibiting concentration (MIC): 2048
dnaQ+ strain (wild type)
  Growth of dnaQ+ strain (wild type) in the presence of drug: *3) dnaQ+ strain (wild type) did not grow in the presence of 10 μg/ml of nalidixic acid.
Super-Amp-resistant dnaQ
  Minimum growth inhibiting concentration (MIC): 0.5
dnaQ49 strain [1]; [6]
  Concentration of Nalidixic Acid: 1 µg/mL
dnaQ49 strain [1]; [7]
  Concentration of Nalidixic Acid: 10 µg/mL
dnaQ49 strain [1]; [8]
  Concentration of Nalidixic Acid: 100 µg/mL
dnaQ49 strain [1]; [9]
  Concentration of Nalidixic Acid: 200 µg/mL
dnaQ49 strain [1]; [10]
  Concentration of Nalidixic Acid: 400 µg/mL
dnaQ49 strain [1]; [11]
  Concentration of Nalidixic Acid: 600 µg/mL
dnaQ49 strain [1]; [12]
  Concentration of Nalidixic Acid: 1000 µg/mL
dnaQ49 strain [1]; [13]
  Concentration of Nalidixic Acid: 1100 µg/mL
dnaQ49 strain [1]; [14]
  Concentration of Nalidixic Acid: 1200 µg/mL
dnaQ49 strain [1]; [15]
  Concentration of Nalidixic Acid: 1300 µg/mL
dnaQ49 strain [1]; [16]
  Concentration of Nalidixic Acid: 1400 µg/mL
dnaQ49 strain [1]; [17]
  Concentration of Nalidixic Acid: 1600 µg/mL
dnaQ49 strain [1]; [18]
  Concentration of Nalidixic Acid: 1800 µg/mL
dnaQ49 strain [1]; [19]
  Concentration of Nalidixic Acid: 2000 µg/mL
dnaQ49 strain [1]; [20]
  Concentration of Nalidixic Acid: 2500 µg/mL
dnaQ49 strain [1]; [21]
  Concentration of Nalidixic Acid: 3000 µg/mL
dnaQ49 strain [1]; [22]
  Concentration of Nalidixic Acid: 4000 µg/mL
dnaQ49 strain [1]; [23]
  Concentration of Nalidixic Acid: 5000 µg/mL
dnaQ49 strain [1]; [24]
  Concentration of Nalidixic Acid: 6000 µg/mL
dnaQ49 strain [1]; [25]
  Concentration of Nalidixic Acid: 6200 µg/mL
dnaQ49 strain [1]; [26]
  Concentration of Nalidixic Acid: 6400 µg/mL
dnaQ49 strain [1]; [27]
  Concentration of Nalidixic Acid: 6600 µg/mL
dnaQ49 strain [1]; [28]
  Concentration of Nalidixic Acid: 6800 µg/mL
dnaQ49 strain [1]; mutagenesis treatments for 24 times, listed as Nalidixic Acid
  Concentration of Nalidixic Acid: 7000 µg/mL
dnaQ49 strain [1]; mutagenesis treatments for 24 times, listed as nalidixic acid
  Concentration of Nalidixic Acid: 7,000 μg/ml
Wild-Type
  Minimum growth inhibiting concentration (MIC): 2
dnaQ
  Minimum growth inhibiting concentration (MIC): 1

## O=C(N[C@H](CO)[C@H](O)c1ccc([N+](=O)[O-])cc1)C(Cl)Cl [Chloramphenicol]
Super-Amp-resistant dnaQ
  Minimum growth inhibiting concentration (MIC): 0.5
Wild-Type
  Minimum growth inhibiting concentration (MIC): 0.5
dnaQ
  Minimum growth inhibiting concentration (MIC): 1

## CO/N=C(\C(=O)N[C@@H]1C(=O)N2C(C(=O)O)=C(COC(C)=O)CS[C@H]12)c1csc(N)n1 [Cefotaxime]
Super-Amp-resistant dnaQ
  Minimum growth inhibiting concentration (MIC): 64
  Resistance of ampicillin-resistant dnaQ49 strain to other antibiotic substances (MIC investigation): strong resistance
Wild-Type
  Minimum growth inhibiting concentration (MIC): 0.0156
dnaQ
  Minimum growth inhibiting concentration (MIC): 0.0313
